The target of the assay is T1, hP2X4R (Homo sapiens, UniProt Q99571).
T1 construct: expressed in transfected cells; host or cells: Xenopus laevis oocytes (cRNA injection)
T1 sequence (Q99571 1-388): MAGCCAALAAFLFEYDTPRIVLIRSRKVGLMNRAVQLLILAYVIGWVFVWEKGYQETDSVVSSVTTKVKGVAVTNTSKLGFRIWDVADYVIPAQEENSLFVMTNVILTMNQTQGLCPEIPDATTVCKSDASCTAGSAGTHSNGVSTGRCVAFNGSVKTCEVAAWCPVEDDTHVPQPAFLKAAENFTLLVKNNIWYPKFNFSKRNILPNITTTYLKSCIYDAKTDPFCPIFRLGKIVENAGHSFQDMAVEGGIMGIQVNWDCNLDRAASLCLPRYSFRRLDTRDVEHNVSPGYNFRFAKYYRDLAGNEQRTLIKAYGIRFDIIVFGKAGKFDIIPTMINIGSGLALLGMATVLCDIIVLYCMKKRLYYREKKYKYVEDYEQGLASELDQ
The experiment in a line: TEVC of ATP-induced currents, hP2X4R in X. laevis oocytes (steady-state protocol). It is filed as cell-based. The source says: Oocyte expression plasmids encoding the wild-type (wt) and N-terminally His-tagged (His-) fusion constructs of the hP2X2R, hP2X3R, hP2X4R, and hP2X7R, and the mutant His-^20RMVL^23KVIV^23S^26N-hP2X1R, S^15V-rP2X3R, and His-S^15V-hP2X3R were the same as used in previous research ([Hausmann et al., 2006]; [Wolf et al., 2011]; [Hausmann et al., 2014]; [Obrecht et al., 2019]). In most cases, the N-terminal His-tagged variants of P2XRs were used here and in the previous studies to allow biochemical analyses on affinity-purified proteins using the same constructs. Although this was not required for the present study, it allows for better comparability with our previous studies. […]
Ion currents mediated by P2X receptors were evoked by the indicated concentration of ATP or α,β-meATP and were recorded 1 or 2 days after cRNA injection at ambient temperature at a holding potential of −60 mV by two-electrode voltage clamp (TEVC) as previously described ([Hausmann et al., 2006]). […]

`O=C(O)Cc1ccccc1Nc1c(Cl)cccc1Cl` [Diclofenac, diclofenac] yielded an IC50 (10 µM ATP, steady-state protocol, X. laevis oocytes) of 1110 µM. Further, under “read-out: Max. inhibition at 1 mM”, the inhibition at 1000 µM is 61.2%.

These data come from publication PMC10060569 (Frontiers in Pharmacology, 2023).
